According to PMC12767106, “In Situ Assembly of Transformable Monopeptide on Activated Neutrophils Attenuates NETs‐Induced Hepatocellular Carcinoma Metastasis by Disrupting NE Nuclear Translocation” (Advanced Science, 2025):

What was measured:
[1] = test system: mouse red blood cells (RBCs); test: Hemolysis assay; format: cell-based; conditions: 2% RBC suspension in PBS, 1 h, 37 °C, absorbance at 541 nm, triplicate
Experimental: Hemolysis Assay of FTP-NPs
To assess the hemolytic activity of FTP-NPs, red blood cells (RBCs) were harvested from C57BL/6 mice (aged 6–8 weeks, female). The mice were euthanized by cervical dislocation, and blood was collected via cardiac puncture into heparinized tubes. Blood was then immediately diluted with an equal volume of phosphate-buffered saline (PBS) and centrifuged at 1500 g for 10 minutes to isolate the RBCs. The supernatant was discarded, and the RBC pellet was washed three times with PBS to remove any residual plasma and other cellular components. The final RBC suspension was adjusted to a 2% hematocrit using PBS. FTP-NPs were synthesized as described previously. Briefly, FTP-NPs were prepared by self-assembly of peptidic […]
concentration was tested in triplicate. For the hemolysis assay, 200 μL of the 2% RBC suspension was incubated with 200 μL of FTP-NPs at the specified concentrations in a 96-well plate for 1 hour at 37°C under gentle shaking. […] The hemoglobin released into the supernatant was quantified by measuring the absorbance at 541 nm (A541) using a microplate reader. The percentage of hemolysis was calculated using the following formula: Hemolysis %= (Asample−ANC)/ (APC−ANC) *100%. Where Asample is the absorbance of the sample, ANC is the absorbance of the negative control, and APC is the absorbance of the positive control. […]

activated neutrophils = test: NETs formation (MPO-DNA ELISA, CitH3 immunofluorescence and Western blot); format: cell-based, mouse; conditions: PMA-activated neutrophils, 50 µM, 4 h, CitH3 staining and Western blot
Experimental: Submitted to Advanced Science
Neutrophil Elastase Activity Assay
To evaluate the distribution of active NE on the surface and inside of neutrophils, we used a kit (AkrivisBio’s Neutrophil Elastase Activity Assay, MA-0156), seeded neutrophils in confocal microscopy dishes, and then treated them with NFTP-NPs (50 µM, medium: DMSO = 99:1, v/v), FTP-NPs (50 µM, medium: DMSO = 99:1, v/v), PMA+NFTP-NPs (50 µM, medium: DMSO = 99:1, v/v), and PMA+FTP-NPs (50 µM, medium: DMSO = 99:1, v/v) at 37°C. Because the Neutrophil elastase in the kit cleaves a concrete fluorogenic substrate which releases AFC, providing intense fluorescence, 50 μl of MeOSucc-AAPV-AFC mix (Assay Buffer: MeOSucc-AAPV-AFC = 48:2) was added at 4 h, and after incubation for 1 h, the samples were examined by CLSM (LSM980, Zeiss, Germany).
Quantitative analysis of NE activity […]
DMSO = 99:1, v/v) for 4 h to obtain the solution.35,36 Quantitative analysis was carried out by a NETosis Assay Kit (Cayman Chemical, USA).
Quantitative induction analysis of NETs in vitro […]
According to the manufacturer's instructions, MPO -DNA levels in cultured supernatant were analyzed by an ELISA kit (MEIMIAN, China).38 Briefly, samples were added to each well and incubated with anti -MPO and anti-DNA antibodies for 2 h at room temperature. […] The OD value w as then measured by a microplate […]

## PpIX-GFFVLK-EAIPMSIPPEVK [FTP-NPs]
[1]
  maximum observed hemolysis rate: approximately 0.9%
Activated neutrophils
  formation of NETs: effectively inhibit the formation of NETs
